Results taken from patent publication US6689764B1, “Treatment of angiogenesis dependent conditions with dextrin sulphate” (priority 1999, dated 2004).

Assays:
[1] = test system: HUVEC cell line; test: TCS Biologicals Human Angiogenesis Model (tubule formation); type: cell-based
Description: The effect of sulphated dextrin on vessel formation of the HUVEC cell line was performed by the use of the TCS Biologicals Human Angiogenesis Model. The assay is supplied as a growing culture of the HUVEC cell line together with culture matrix and additional human cells present (the exact nature of the cells is not known) at the earliest stages of tubule formation in a 24-well format. The positive control reagent was a standard stock solution of VEGF and the negative control was Suramin. After removing the well seals, the cultures were examined for cell morphology to confirm their viability.
Growth medium was provided with the kit and was used to make up the sulphated dextrin at concentrations ranging from 0-1000 μg/ml. The existing medium was aspirated from the wells and replaced with medium containing the dextrin sulphate concentrations in a 0.5ml volume. This was placed at 37° C., in a 5% CO2 containing atmosphere. This was repeated on days 4, 7 and 9.
Between days 7-11 cultures were fixed by the enclosed fixative and stained with the mouse monoclonal anti-PECAM-1 antibody at a 1:4000 dilution (present in blocking buffer). 0.5ml of diluted antibody was added per well and incubated for 60 minutes at 37° C. The secondary antibody (goat anti-mouse lgG alkaline phosphatase conjugate) was diluted 1:500 in blocking buffer and added to the wells after washing for 60 minutes at 37° C. After washing the plate the substrate was prepared; BCIP/NBT tablets were dissolved in distilled water and added to the wells. Following incubation for 5-10 minutes the wells were washed and were imaged using the Leica Qwin image analysis software package.

[2] = test system: ECV304 cells; test: In vitro proliferation, MTT uptake; type: cell-based, human
Description: (§1) SK-HEP-1 is a human liver adenocarcinoma with endothelial morphology and ECV304 is a human urinary bladder carcinoma with endothelial-like characteristics. Both cell lines were obtained from the ECACC. HUVEC was provided as a growing culture by TCS Biologicals.
(§2) Cells were grown and prepared in RPMI medium containing 10% FCS and 2mM glutamine. For the in vitro assays, cells were harvested with 0.025% EDTA, washed in the culture medium and plated into 96-well plates at 5×10^3 and 1×10^4 cells/well in a volume of 100 μl. After 24 hours, to allow for cell adherence, the medium was replaced with fresh medium containing dextrin sulphate at concentrations of 0, 1, 5, 10, 50, 100, 500, 1000 μg/ml. After 48 hours, proliferation was assessed by methyl thiazol tetrazolium (MTT) uptake as follows:
(§3) MTT (Sigma) was added to the wells in a 50 μl volume at a concentration of 1mg/ml. After 4 hours incubation the insoluble formazan crystals were solubilised by the addition of 75 μl DMSO/well and the absorbance measured at 550 nm.
(§4) Dextrin sulphate was assessed in two separate experiments. All experiments were performed with two different cell-seeding concentrations. […] To compare between cell lines and experiments, the level of inhibition achieved at the highest concentration evaluated (1000 μg/ml) was calculated as was the significance from the untreated control. (See FIG. 11).

[3] = test system: SK-HEP-1 cells; test: In vitro proliferation, MTT uptake; type: cell-based, human
Description: as §1, §2, §3, §4

[4] = test system: human placental blood vessels; test: Placental blood vessel in fibrin clot in vitro angiogenesis assay; type: cell-based; conditions: 100 μg/ml, up to day 22
Description: Compounds were tested at a final concentration of 100 μg/ml. The degree of new vessel formation was quantified blind twice a week using a visual analog scale in which 0=no growth, 1=minimal new vessel formation, 2=significant new vessel formation, and 3=dense new vessel formation. An angiogenesis score was derived from each count by dividing the total score (i.e. the sum of all the wells) by the maximum possible score and then expressing the result as a percentage. This graph is representative of 3 experiments with a total of 20 wells/plate/experiment for each compound tested.
Blood vessels (approximately 1-2 mm diameter) were excised from the apical surface of human placentas within 6 h of an elective Caesarean birth. Use of the placentas for these studies were approved by the Ethics Committee of Hammersmith Hospitals Trust, London. The blood vessels were placed in Hank's balanced salt solution and cut into 1-2 mm fragments using fine dissecting forceps and iridectomy scissors. Residual clots were removed and the blood vessels then soaked in Hank's balanced salt solution.
The effect of each compound on new blood vessel formulation was determined by culturing the blood vessels within a fibrin clot in 24-well tissue culture plates. Thirty μl of bovine thrombin (50 NIH U/ml in 0.15 M sodium chloride) was added to each well followed by 1 ml/well of 3 mg/ml bovine fibrinogen in Medium 199. The thrombin and fibrinogen were rapidly mixed and a blood vessel fragment placed in the centre of the well. Fibrin gel formation occurred rapidly and left the vessel suspended within the gel. One ml/well of Medium 199 supplemented with 20% foetal calf serum, 250 IU/ml penicillin and 250 U/ml streptomycin was then added to each well. ε-arnino-n-caproic acid was also added (300 μg/ml) for the first 4 days and twice weekly thereafter (50 μg/ml) in order to prevent dissolution of the fibrin clot. The vessels were cultured at 37° C. in a humidified incubator for 25 days with the media being changed twice weekly.
The degree of new vessel formation was quantified blind twice a week by three different observers using a visual analogue scale in which 0=no growth, 1=very little new vessel formation, 2=significant new vessel formation and 3=dense new vessel formation. An angiogenesis score was derived from the counts undertaken for each well by dividing the total score by the maximum score possible and then expressing the result as a percentage. On each of 3 separate occasions, each compound was tested in 20 replicate wells. […] Some of the fibrin clots were fixed overnight in 10% formalin, paraffin embedded, sectioned for histology and then stained for the endothelial cell markers Factor VIII and CD31. Results are expressed as the mean±sem. A students t-test was used to determine the level of significance.

[5] = test system: HUVEC cells; conditions: in vitro, Thornton et al 1999; cited from earlier work
[6] = test system: AP5LV human colorectal xenograft; test: AP5LV human colorectal xenograft in SCID mice; type: in vivo
Description: Dextrin sulphate, 10 mg/kg in 1ml icodextrin was administered every second day to two male SCID micc. Dosing continued for 14 days.
The cell line evaluated, AP5LV, is a variant of an established human colorectal cell line, derived originally from a patient's primary tumour. AP5LV cells have been selected for their ability to both colonise the lungs following intravenous injection and to spontaneously metastasise to the lungs following injection of the cells into the peritoneal muscle wall. AP5LV cells were maintained in vitro in RPMI 1640 culture medium (Gibco, Paisley, UK) containing 10% (v/v) heat inactivated foetal bovine serum (Sigma, Poole, UK) at 37° C. in 5% CO2 and humidified conditions. Cells from semi-confluent monolayers were harvested with 0.025% EDTA, washed twice in the culture medium described above, and re-suspended at 5×10^6/50 μl in sterile phosphate buffered saline, pH 7.4(PBS).
The mice were anaesthetised using Hypnorm(Roche)/Hyponovel(Janssen) and the cell suspension injected into the peritoneal muscle wall of 20 male SCD mice. Mice were electronically tagged for identification purposes (RS Biotech, Tracker), and randomly allocated to two experimental groups (see below). The treatment regime was initiated on day 1 and continued every other day until termination on day 38. […]

In the case of dextrin sulphate, the “branch point number, % of control” value ([1]; 1 μg/ml) was 120%, the “tubule branch points, reduction” value ([1]; 1 μg/ml) was 31% and the “branch point number, % of control” value ([1]; 5 μg/ml) was 115%. The “branch point number, inhibition” value ([1]; 50 μg/ml) was 26%, the “branch point number, inhibition” value ([1]; 100 μg/ml) was 48% and the “tubule number, inhibition” value ([1]; 100 μg/ml) was 48%. The “branch point number, inhibition” value ([1]; 500 μg/ml) was 53%, the “branch point number, inhibition” value ([1]; 1000 μg/ml) was 68% and the “tubule branch points, reduction” value ([1]; 1000 μg/ml) was 93%. The “tubule number, inhibition” value ([1]; 1000 μg/ml) was 68%, the branch point number ([1]; all concentrations evaluated (1-1000 μg/ml)) was “inhibitory effect” and the tubule number ([1]; lower concentrations) was “low but significant stimulation”. For the same substance, the “inhibition of in vitro growth” value ([2]; ECV304, 0-1000 μg/ml, 48 hours) was “moderate levels of inhibition”, the “level of inhibition of growth” value ([2]; ECV304, 1000 μg/ml, both cell concentrations, two experiments) was 11-33% and the “concentrations at which inhibitory effects were seen” value ([2]; ECV304, MTT assay) was over 100 µg/mL. For the same substance, the “inhibition of in vitro growth” value ([3]; SK-HEP-1, 0-1000 μg/ml, 48 hours) was “moderate levels of inhibition”, the “level of inhibition of growth” value ([3]; SK-HEP-1, 1000 μg/ml, lower cell concentration) was about 65% and the “concentrations at which inhibitory effects were seen” value ([3]; SK-HEP-1, MTT assay) was over 100 µg/mL. For the same substance, the “level of inhibition of growth” value ([3]; SK-HEP-1, higher cell concentration) was “not as great”, the “new vessel formation compared to media alone” value [4] was “inhibits new vessel formation” and the “proliferation of HUVEC cells” value [5] was “not to be directly inhibited”. For the same substance, the toxicity ([6]; 10 mg/kg i.p. every second day, SCID mice) was “no toxicity” and the “reduction in final tumour weight” value ([6]; 10 mg/kg in 4% Icodextrin i.p. every second day, termination day 38, SCID mice) was 28%.
